Laboratory results published in patent US20220039384A1, “SELECTIVE WEED CONTROL WITH HALAUXIFEN OR 4-AMINO-3-CHLORO-5-FLUORO-6-(4-CHLORO-2-FLUORO-3-METHOXYPHENYL) PYRIDINE-2-CARBOXYLIC ACID OR DERIVATIVES THEREOF IN VINEYARDS OR PERENNIAL CROPS” (Corteva Agriscience LLC, priority 2013, published 2022).

Legend:
Type in all cases: in vivo
[1] = tested on: MEDPO (Medicago polymorpha, California burclover); assay: Field trial, post-emergence directed spring application (March), California vineyards: visual weed control
Source text: (§1) As used herein, selective pre- and post-emergence control of undesirable vegetation means preventing, reducing, killing, or otherwise adversely modifying the development of the undesirable vegetation in the presence of crop plants with limited adverse effect on the crop plants. For example, a broadleaf weed control of 80% (rated visually) with crop injury of less than or equal to 20% (rated visually) would constitute selective control. In some embodiments the adverse effect on crop plants is limited to less than 10% visually rated crop injury. Visual crop injury is a composite rating accounting for all phytotoxic effects including chlorosis, necrosis, growth inhibition, epinasty, delays in maturity and seed or fruit deformity. Visual weed control is a composite rating accounting for reductions in pest plant biomass and/or stand reduction.
(§2) Small plot research experiments were conducted in Fresno, Calif., USA to evaluate the pre-emergence and post-emergence herbicidal weed control activity and the vines crop tolerance to pre-emergence and post-emergence application of Compound I and Compound II to the weeds. Application water volume of 100 to 187 liters per hectare (L/ha) was used for all experiments. All treatments were applied with a standard small plot carbon dioxide (CO2) backpack sprayer. All treatments were tank-mixed with Crop Oil Concentrate (COC), a well known adjuvant, at 2.34 L/ha. Experimental emulsifiable concentrate (EC) formulations were used for Compounds I and II. The dimethylammonium (DMA) salt of glyphosate was used in all trials. Pindar® GT is a commercial formulation containing a pre-mix of penoxsulam+oxyfluorfen (10+476 grams of active ingredient per liter (g ai/L), respectively). Vine crop stage was dormant (no leaves on the vines during the winter) or early spring growth at the time of Compound I or Compound II application. Generally, weeds were not emerged for the pre-emergence treatments or were at the two to six-leaf stage at the time of the post-emergence herbicide application.
(§3) Tables 1, 2 and 6 provide weed control results from pre-emergence applications of Compounds I and/or II prior to weed emergence; Tables 4, 7 and 8 provide weed control results from post-emergence applications of Compounds I and/or II applied to actively growing weeds; Tables 3 and 5 provide vine response data from pre-emergence and post-emergence applications of Compound I respectively.

[2] = tested on: EROCI (Erodium cicutarium, redstem filaree); assay: as above
Source text: as §1, §2, §3

[3] = tested on: MALPA (Malva parviflora, smallflower malva); assay: as above
Source text: as §1, §2, §3

[4] = tested on: STEME (Stellaria media, common chickweed); assay: as above
Source text: as §1, §2, §3

[5] = tested on: ERICA (Conyza canadensis, horseweed); assay: Field trial, pre-emergence dormant application (December), California vineyards: visual weed control; conditions: applied prior to weed emergence
Source text: as §1, §2, §3

[6] = tested on: CAPBP (Capsella bursa-pastoris, Shepherd's purse); assay: as above; conditions: applied prior to weed emergence
Source text: as §1, §2, §3

[7] = tested on: POAAN (Poa annua, annual bluegrass); assay: as above; conditions: applied prior to weed emergence
Source text: as §1, §2, §3

[8] = tested on: HORMU (Hordeum murinam, wall barley); assay: as above; conditions: applied prior to weed emergence
Source text: as §1, §2, §3

[9] = tested on: EROCI (Erodium cicutarium, redstem filaree); assay: as above; conditions: applied prior to weed emergence
Source text: as §1, §2, §3

[10] = tested on: PANCA (Panicum capillare, witchgrass); assay: as above; conditions: applied prior to weed emergence
Source text: as §1, §2, §3

[11] = tested on: MALPA (Malva parviflora, smallflower malva); assay: as above; conditions: applied prior to weed emergence
Source text: as §1, §2, §3

[12] = tested on: VITSS (Vitis spp, grape); assay: Field trial, soil-applied dormant application (December), California vineyards: vine injury and growth response; conditions: applied to the soil
Source text: as §1, §2, §3

[13] = tested on: IPOSS (Ipomoea spp, morningglory); assay: Field trial, post-emergence directed dormant application (December), California vineyards: visual weed control
Source text: as §1, §2, §3

[14] = tested on: AMSIN (Amsinckia intermedia, coast fiddleneck); assay: as above
Source text: as §1, §2, §3

[15] = tested on: CAPBP (Capsella bursa-pastoris, Shepherd's purse); assay: as above
Source text: as §1, §2, §3

[16] = tested on: AMARE (Amaranthus retroflexus, redroot pigweed); assay: as above
Source text: as §1, §2, §3

[17] = tested on: CHEAL (Chenopodium album, common lambsquarters); assay: as above
Source text: as §1, §2, §3

SMILES: COC(=O)c1nc(-c2ccc(Cl)c(OC)c2F)cc(N)c1Cl [I—Me, methyl 4-amino-3-chloro-6-(4-chloro-2-fluoro-3-methoxyphenyl)pyridine-2-carboxylate]
- % Visual Control 59 DAA MEDPO ([1]; 2.5 g ae/ha): 100%
- % Visual Control 59 DAA MEDPO ([1]; 5 g ae/ha): 100%
- % Visual Control 59 DAA MEDPO ([1]; 10 g ae/ha): 100%
- % Visual Control 59 DAA EROCI ([2]; 2.5 g ae/ha): 43.3%
- % Visual Control 59 DAA EROCI ([2]; 5 g ae/ha): 89.7%
- % Visual Control 59 DAA EROCI ([2]; 10 g ae/ha): 94%
- % Visual Control 59 DAA MALPA ([3]; 2.5 g ae/ha): 80%
- % Visual Control 59 DAA MALPA ([3]; 5 g ae/ha): 90%
- % Visual Control 59 DAA MALPA ([3]; 10 g ae/ha): 96.7%
- % Visual Control 59 DAA STEME ([4]; 2.5 g ae/ha): 46.7%
- % Visual Control 59 DAA STEME ([4]; 5 g ae/ha): 94%
- % Visual Control 59 DAA STEME ([4]; 10 g ae/ha): 95.7%
- % Visual Control 90 DAA ERICA ([5]; 10 g ae/ha): 75%
- % Visual Control 184 DAA ERICA ([5]; 10 g ae/ha): 92%
- % Visual Control 90 DAA ERICA ([5]; 20 g ae/ha): 100%
- % Visual Control 184 DAA ERICA ([5]; 20 g ae/ha): 97%
- % Visual Control 90 DAA ERICA ([5]; 40 g ae/ha): 100%
- % Visual Control 184 DAA ERICA ([5]; 40 g ae/ha): 100%
- % Visual Control 90 DAA CAPBP ([6]; 10 g ae/ha): 62%
- % Visual Control 90 DAA CAPBP ([6]; 20 g ae/ha): 58%
- % Visual Control 90 DAA CAPBP ([6]; 40 g ae/ha): 82%
- % Visual Control 90 DAA POAAN ([7]; 10 g ae/ha): 58%
- % Visual Control 184 DAA POAAN ([7]; 10 g ae/ha): 48%
- % Visual Control 90 DAA POAAN ([7]; 20 g ae/ha): 65%
- % Visual Control 184 DAA POAAN ([7]; 20 g ae/ha): 28%
- % Visual Control 90 DAA POAAN ([7]; 40 g ae/ha): 63%
- % Visual Control 184 DAA POAAN ([7]; 40 g ae/ha): 47%
- % Visual Control 90 DAA HORMU ([8]; 10 g ae/ha): 100%
- % Visual Control 184 DAA HORMU ([8]; 10 g ae/ha): 90%
- % Visual Control 90 DAA HORMU ([8]; 20 g ae/ha): 100%
- % Visual Control 184 DAA HORMU ([8]; 20 g ae/ha): 88%
- % Visual Control 90 DAA HORMU ([8]; 40 g ae/ha): 100%
- % Visual Control 184 DAA HORMU ([8]; 40 g ae/ha): 92%
- % Visual Control 90 DAA EROCI ([9]; 10 g ae/ha): 58%
- % Visual Control 184 DAA EROCI ([9]; 10 g ae/ha): 47%
- % Visual Control 90 DAA EROCI ([9]; 20 g ae/ha): 72%
- % Visual Control 184 DAA EROCI ([9]; 20 g ae/ha): 52%
- % Visual Control 90 DAA EROCI ([9]; 40 g ae/ha): 82%
- % Visual Control 184 DAA EROCI ([9]; 40 g ae/ha): 55%
- % Visual Control 184 DAA PANCA ([10]; 10 g ae/ha): 60%
- % Visual Control 184 DAA PANCA ([10]; 20 g ae/ha): 33.3%
- % Visual Control 184 DAA PANCA ([10]; 40 g ae/ha): 63.3%
- % Visual Control 90 DAA MALPA ([11]; 10 g ae/ha): 85%
- % Visual Control 184 DAA MALPA ([11]; 10 g ae/ha): 45%
- % Visual Control 90 DAA MALPA ([11]; 20 g ae/ha): 88%
- % Visual Control 184 DAA MALPA ([11]; 20 g ae/ha): 60%
- % Visual Control 90 DAA MALPA ([11]; 40 g ae/ha): 89%
- % Visual Control 184 DAA MALPA ([11]; 40 g ae/ha): 47%
- VITSS % Visual Injury 124 DAA ([12]; 10 g ae/ha): 0%
- VITSS % Visual Injury 184 DAA ([12]; 10 g ae/ha): 15%
- VITSS Branch Length (cm) 184 DAA ([12]; 10 g ae/ha): 187 cm
- VITSS Internode Length (cm) 184 DAA ([12]; 10 g ae/ha): 7 cm
- VITSS Yield (Lbs) 236 DAA ([12]; 10 g ae/ha): 71 Lbs
- VITSS % Visual Injury 124 DAA ([12]; 20 g ae/ha): 0%
- VITSS % Visual Injury 184 DAA ([12]; 20 g ae/ha): 18%
- VITSS Branch Length (cm) 184 DAA ([12]; 20 g ae/ha): 172 cm
- VITSS Internode Length (cm) 184 DAA ([12]; 20 g ae/ha): 7 cm
- VITSS Yield (Lbs) 236 DAA ([12]; 20 g ae/ha): 63 Lbs
- VITSS % Visual Injury 124 DAA ([12]; 40 g ae/ha): 0%
- VITSS % Visual Injury 184 DAA ([12]; 40 g ae/ha): 37%
- VITSS Branch Length (cm) 184 DAA ([12]; 40 g ae/ha): 125 cm
- VITSS Internode Length (cm) 184 DAA ([12]; 40 g ae/ha): 6 cm
- VITSS Yield (Lbs) 236 DAA ([12]; 40 g ae/ha): 31 Lbs
- % Visual Control 57 DAA IPOSS ([13]; 2.5 g ae/ha): 57.8%
- % Visual Control 57 DAA IPOSS ([13]; 5 g ae/ha): 65%
- % Visual Control 57 DAA IPOSS ([13]; 10 g ae/ha): 66.7%
- % Visual Control 57 DAA AMSIN ([14]; 2.5 g ae/ha): 38.3%
- % Visual Control 57 DAA AMSIN ([14]; 5 g ae/ha): 76.7%
- % Visual Control 57 DAA AMSIN ([14]; 10 g ae/ha): 97.3%
- % Visual Control 57 DAA CAPBP ([15]; 2.5 g ae/ha): 91.7%
- % Visual Control 57 DAA CAPBP ([15]; 5 g ae/ha): 99.3%
- % Visual Control 57 DAA CAPBP ([15]; 10 g ae/ha): 100%
- % Visual Control 57 DAA AMARE ([16]; 2.5 g ae/ha): 95%
- % Visual Control 57 DAA AMARE ([16]; 5 g ae/ha): 96.7%
- % Visual Control 57 DAA AMARE ([16]; 10 g ae/ha): 100%
- % Visual Control 57 DAA CHEAL ([17]; 2.5 g ae/ha): 100%
- % Visual Control 57 DAA CHEAL ([17]; 5 g ae/ha): 96.7%
- % Visual Control 57 DAA CHEAL ([17]; 10 g ae/ha): 100%
